Assay results from patent publication US20250352675A1, “CA-IX TARGETING FLUORESCENT PROBES” (BRACCO IMAGING S.P.A., priority 2022, published 2025).
Where two headings read alike, the source gives them in different places.

Legend:
[1] = target: T1, recombinant bovine CAII enzyme (bCAII) (Bos taurus, UniProt P00921); test: Dansylamide (DNSA) displacement fluorescence assay on carbonic anhydrase catalytic site; assay type: binding
T1 construct: purchased Sigma-Aldrich; host or cells: E. coli
Protocol: The binding affinity of the compounds of formula (I) to Carbonic Anhydrase (CA) catalytic site was determined to assess the targeting efficacy of the molecular vectors, even after labeling the targeting ligand with the fluorescent portion of the probe.
Such enzyme in fact is highly available and has a catalytic site with high degree of homology in different carbonic anhydrase isoforms (Aggarwal M. et al., J Enzyme Inhib Med Chem 2013; 28(2): 267-277).
The dissociation constant (Ko) of compounds of formula (I) for bCAII was estimated by performing a fluorescence-based assay, exploiting the drop of fluorescence deriving from the displacement of carbonic anhydrase-bound dansylamide (DNSA) in presence of competitors and was adapted for application in 96-well plates from Wang S C et al., Biochem Mol Biol Educ. 2006, 34(5): 364-368. […] In both cases DNSA is excited at about 320 nm. Thus, excitation of carbonic anhydrase aromatic residues (Trp) at 285 nm generates an emission at 340 nm, that is quenched in presence of bound DNSA. The quenching occurs by FRET (fluorescence resonance energy transfer) to bound DNSA, which is in turn excited, emitting at 460 nm.
Molecules that bind to CA in the same binding site of DNSA, such as sulfonamides or derivatives, competitively displace DNSA from CA. The degree of displacement is function of the affinity of competitors and can be followed through the drop of fluorescence at 460 nm.
In detail, 5-(Dimethylamino)-1-naphthalenesulfonamide (dansylamide, DNSA, Sigma-Aldrich 218898) was reconstituted in 20 mM Tris pH 8, aliquoted and stored at −20° C.; bCAII (recombinant, expressed in E. Coli, Sigma-Aldrich) was divided in aliquots and stored at −20° C.
DNSA fluorescence emission at 462 nm from each well was recorded after excitation at 285 nm (Trp wavelength of excitation) and consequent selective excitation of DNSA bound to bCAII by FRET. Fractional saturation of bCAII was experimentally determined through normalization of fluorescence data between 1 (no compounds) and 0 (maximal DNSA displacement by presence of binding competitors), according to the equation below: […]
where r is fractional saturation, FLobs is the recorded fluorescence intensity, FLmin is the fluorescence intensity recorded at maximal concentration of compounds, and FLmax is fluorescence recorded in absence of compounds.
The KD of CA-binding compounds (=KDcomp) was then derived by mathematical fitting of experimental data according to the equation: […]
Mathematical fitting was performed using Microsoft Excel Solver.
All compounds were tested in triplicate.

[2] = Optical characterization (excitation/emission maxima, molar extinction coefficient); assay type: physicochemical
Protocol: A dual-beam UV-VIS spectrophotometer (Lambda 40, Perkin Elmer) was used to determine the absorbance (Abs) of the compounds of the invention. Emission/excitation (Em/Ex) spectra were carried out on a spectrofluorometer (FluoroLog-3 1IHR-320, Horiba Jobin Yvon) equipped with an F-3018 integrating sphere accessory. The measurements were performed using an excitation wavelength at maximum absorbance of different dyes, and the sample was excited with a 450W Xenon Light Source. Detection was performed by photomultiplier tubes (PMT-NIR) cooled detector or by TBX-04 detector. Dye solutions were carefully prepared to have an absorbance lower than 0.1 (optical densities) to minimize re-absorption phenomena.
The compounds of the invention were characterized in terms of their optical properties in vitro in aqueous medium (i.e., water/PBS pH 7.4) and in a clinical chemistry control serum (Seronorm, Sero S A), mimicking the chemical composition and optical properties of human serum. All solutions were freshly prepared. In particular, the compounds of the invention are characterized by absorption maxima comprised in the range from about 750 nm to 780 nm.
The excitation and emission maxima in PBS and Seronorm and the molar extinction coefficient (E) in water of representative compounds of formula (I) are shown in Table I in comparison with the known CA-IX targeting fluorescent probe named Hypoxyfluor-1 (HF-1, for instance disclosed in Bioconjugate Chem 2018, 29, 3320-3331). […] Moreover, the extinction coefficients were higher than […] for all compounds.

CA-IX = target: T2, CA-IX (Homo sapiens, UniProt Q16790); test: Cellular binding assessment by flow cytometry on CA-IX expressing HT-29 cells; settings: 1 hour 30 min on ice, read-out: CA-IX receptor affinity (KD, to HT-29 cells)
T2 construct: host or cells: HT-29 human colorectal adenocarcinoma cells
Protocol: Human colon adenocarcinoma HT-29 cells (ATCC) used for the cellular binding experiments were cultured in McCoy's 5A medium (Sigma-Aldrich), supplemented with 10% HyClone Fetal Clone III (Euroclone), 2 mM L-glutamine (Sigma-Aldrich), 100 IU/mL penicillin, 0.1 mg/mL streptomycin, 0.25 μg/mL amphotericin B (Antibiotic-Antimycotic solution, Life Technologies) and cells were grown at 37° C. in humidified atmosphere enriched with 5% CO2. DPBS without MgCl2 and CaCl2 (Sigma-Aldrich) was used for cell rinsing.
Indeed, by using the anti-human CA-IX antibody MAB2188 (R&D Systems) and the DAKO […], according to the instruction of the datasheet, HT-29 cells were estimated to express about 150,000 CA-IX molecules per cell. Thus, HT-29 cells were used to measure the binding of all compounds to CA-IX, expressed in its physiological environment at the cell-surface. Briefly, HT-29 cells were detached with StemPro® Accutase® Cell Dissociation Reagent (Life Technologies), collected in DPBS and counted. At least 2·10^5 cells were placed in 1.5 mL tubes on ice and resuspended in 50-100 μL of cold FACS buffer (eBioscience™ Flow Cytometry Staining Buffer, Invitrogen) containing scalar concentrations of compounds (compound 1: range 1-5 μM; compounds 2 and 3: range 0-20 μM). After incubation (1 hour and 30 min on ice in the dark), cells were rinsed 3 times in 300 μL of cold FACS buffer by centrifugation (5 min, 4° C., 350 RCF), discarding the supernatant. Cell pellets were then resuspended in 200 μL of cold FACS buffer (or in a suitable volume in order to obtain no more than 1000 recorded events per μL during FACS analysis) and analyzed with the flow cytometer Accuri™ C6 (BD Biosciences). The mean cell-associated fluorescence was plotted against concentration and the dissociation constant at equilibrium (Ko) was inferred by mathematical fitting with GraphPad Prism v.9 software, according to the following equation: […]
where Bmax is the maximum specific binding in the same units as Y. KD is the equilibrium dissociation constant, in the same units as X. NS is the slope of nonspecific binding in Y units divided by X units. Background is the amount of nonspecific binding with no added Compound.
All compounds were analyzed in at least three independent experiments. The calculated KD are summarized in Table III and compared with the one obtained for HF-1.

HT-29 tumor = test: Ex vivo tumor-to-background ratio in excised HT-29 tumors; design: species or system mice; settings: 1 nmol/mouse, samples collected 24 hours after administration; tumor vs hind limb muscle
Protocol: (§1) The ex vivo biodistribution of the representative compounds 1, 2 and 3 and of the reference compound HF-1 (at 1 nmol/mouse) was evaluated in HT-29 excised tumors and tissues at the end of the in vivo OI sessions 24 hours post intravenous administration. At the end of the in vivo experiment, animals were euthanized by overdose of gaseous anesthesia followed by cervical dislocation. Tumor tissue, muscle, and other organs of interest were removed for ex vivo fluorescent signal measurements. The fluorescence signal intensity was measured by the IVIS Spectrum system. Regions of interest (ROIs) were drawn around each organ and tumor using the Living Image Software (PerkinElmer) and evaluating signal intensity in the tissues (expressed as Average Radiant Efficiency). The ratio between the fluorescence signal in the organs and tumor was then calculated to assess the contrast to hind limb muscle (representing the background).

[3] = Ex vivo biodistribution, organ-to-muscle ratio; assay type: in vivo, mice; settings: 1 nmol/mouse, 24 hours after administration
Protocol: as §1
Moreover, FIG. 6 (b) and Table VIII show the accumulation and distribution of the fluorescent probes in the dissected organs, reporting the ex vivo values of organs-to-muscle ratio from samples collected at 24 hours after the administration of representative compounds 1, 2 and 3 and of the reference compound HF-1 (1 nmol/mouse).

[4] = Optical characterization (excitation/emission maxima, molar extinction coefficient); assay type: physicochemical; settings: in water
[5] = injection into the patient; cited from earlier work

T1 sequence (P00921 whole entry): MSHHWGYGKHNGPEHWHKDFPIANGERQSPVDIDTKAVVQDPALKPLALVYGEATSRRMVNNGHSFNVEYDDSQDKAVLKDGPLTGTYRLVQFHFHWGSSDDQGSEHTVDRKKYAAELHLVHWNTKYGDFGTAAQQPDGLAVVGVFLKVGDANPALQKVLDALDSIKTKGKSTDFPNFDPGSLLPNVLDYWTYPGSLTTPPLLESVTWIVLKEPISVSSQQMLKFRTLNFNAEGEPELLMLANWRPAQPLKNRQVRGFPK

CN(C)c1cccc2c(S(N)(=O)=O)cccc12 [DNSA, 5-(Dimethylamino)-1-naphthalenesulfonamide, reference compound]
Kd ([1]; previously experimentally determined, read-out: dissociation constant at equilibrium of DNSA (KDDNSA)): 170 nM

CC1(C)C(/C=C/C2=C(Oc3ccc(CCC(=O)NCCCCCCCC(=O)Nc4nnc(S(N)(=O)=O)s4)cc3)C(=C/C=C3/N(CCCCS(=O)(=O)O)c4ccc(S(=O)(=O)O)cc4C3(C)C)/CCC2)=[N+](CCCCS(=O)(=O)[O-])c2ccc(S(=O)(=O)O)cc21 [HF-1, reference compound]
Max Em ([2]; PBS pH 7.4): 798 nm | Max Ex ([2]; PBS pH 7.4): 772 nm | Max Em ([2]; Seronorm): 808 nm | Max Ex ([2]; Seronorm): 792 nm | Kd ([1]; 0.25 μM bCAII, 5 μM DNSA, 20 mM Tris pH 8, triplicate, read-out: CAII receptor affinity (KD)): 9.5 ± 1 nM | Kd (CA-IX): 115 ± 8 nM | ex vivo TBR ± SD, HT-29 tumor (HT-29 tumor): 3.1 ± 0.3 | Organ-to-muscle ratio, intestine [3]: 2.2 ± 1.3 | Organ-to-muscle ratio, kidney [3]: 2.4 ± 0.3 | Organ-to-muscle ratio, liver [3]: 5.7 ± 0.2 | Organ-to-muscle ratio, skin [3]: 1.4 ± 0.0 | Organ-to-muscle ratio, spleen [3]: 1.4 ± 0.3 | Organ-to-muscle ratio, stomach [3]: 4.0 ± 1.7 | molar extinction coefficient (ε) [4]: 255000 M⁻¹ cm⁻¹

^124I-cG250: chimeric version of monoclonal antibody G250 labelled with the radionuclide 124I
time after injection to reach tumor/blood ratios suitable for imaging [5]: 2 to 7 days
